Assay results as given in ChEMBL document CHEMBL4024736, “Recent progress on the treatment of Ebola virus disease with Favipiravir and other related strategies” (Bioorg Med Chem Lett, 2017).
pEC50, pIC50: −log10 of the molar value. In brackets after ≈: the same amount, converted by molar mass.

Columns and labels:
[1] = system: Ebolavirus; assay: Antiviral activity against Ebolavirus E718 infected in Vero E6 cells assessed as effective dose after 6 days by neutral red stain based microscopic method; assay type: functional, Vero C1008
[2] = system: Ebolavirus; assay: Antiviral activity against Ebolavirus assessed as reduction in viral titer; assay type: functional; details: Orthoebolavirus
[3] = Antiviral activity against Respiratory syncytial virus A2 infected in Hep2 cells; assay type: functional, cell-based; details: human respiratory syncytial virus, HEp-2
[4] = system: Ebolavirus; assay: Antiviral activity against Ebola virus Mayinga Zaire 1976 infected in IFNAR-/- C57BL/6 mouse at 300 mg/kg, po administered twice daily measured up to 6 days post infection; assay type: functional
[5] = Antiviral activity against Foot-and-mouth disease virus O/JPN/2000 by plaque reduction assay; assay type: functional
[6] = system: Ebolavirus; assay: Antiviral activity against Ebola virus Mayinga Zaire 1976 infected in IFNAR-/- C57BL/6 mouse assessed as survival at 300 mg/kg, po administered twice daily for 13 days measured after 3 weeks; assay type: functional; details: Orthoebolavirus
[7] = system: Ebolavirus; assay: Antiviral activity against Ebolavirus E718 infected in A129 interferon alpha/beta receptor knockout immunodeficient mouse assessed as survival rate at 150 mg/kg, po administered twice daily for 14 days measured after 2 weeks post last dose relative to control; assay type: functional; details: Orthoebolavirus, 336 h
[8] = system: Ebolavirus; assay: Antiviral activity against Ebola virus Mayinga Zaire 1976 infected in IFNAR-/- C57BL/6 mouse assessed as biochemical correlates of disease at 300 mg/kg, po administered twice daily; assay type: functional

NC(=O)c1nc(F)cnc1O [FAVIPIRAVIR]
ED [1]: 400 µM
pIC50 [2]: 4.17
IC50 [3]: 41 µg/mL (≈ 261 µM)
Activity [4]: 100%
pEC50 [5]: 4.92
survival at 300 mg/kg [6]: 100%
survival at 150 mg/kg [7]: 100%
Activity [8]: 20%
